We go through ten compounds from ChEMBL document CHEMBL1201862, “PubChem BioAssay data set” (2004).

SMILES strings stand for the structures.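 Briefly, cells in 96-well plates were exposed to five compound concentrations for 48 h, and endpoints were estimated by linear interpolation. At the GI50, growth is halved.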 The source made the active and inactive calls. Rule as the data show it: active = GI50 up to about 1.1 µM and inactive = higher.

Some test systems named below: A549; ACHN; EKVX; HCT-116; HCT-15; HL-60; HT-29; LOX IMVI; MCF7; MDA-MB-231; MDA-MB-435; Malme-3M; NCI/ADR-RES; OVCAR-3; SK-OV-3; SN12C; SR; SW-620; UACC-257; UACC-62.
Experiment in all cases: growth of human tumour cells (NCI), 48 h

As to `O=[N+]([O-])c1ccc(NC(=S)Nc2ccccn2)cc1`, the GI50 with A549 is 19.1 µM (inactive); in the assay with ACHN, 34.1 µM (inactive); in the assay with EKVX, 8.45 µM (inactive); in the assay with HCT-116, 11.9 µM (inactive); in the assay on HCT-15, 18.8 µM; in the assay on HL-60 it was 14 µM (inactive). Also, the GI50 in the assay with HT-29 is 31.7 µM (inactive); in the assay on LOX IMVI, 16.4 µM (inactive); with MCF7, 12.4 µM (inactive); in the assay with MDA-MB-231, 40.3 µM (inactive); in the assay with MDA-MB-435, 20.8 µM (inactive); with Malme-3M, 72.9 µM (inactive). For the same compound, the GI50 with NCI/ADR-RES was 33.4 µM (inactive); with OVCAR-3 it was 18.6 µM (inactive); in the assay on SK-OV-3 it was 47 µM (inactive); with SN12C, 37.2 µM (inactive); with SR, 5.28 µM (inactive); with SW-620, 40.3 µM (inactive). Also, the values for the GI50 in the assay with UACC-257 and in the assay on UACC-62 were 64.4 µM (inactive) and 19.9 µM (inactive), respectively.
In the case of `CC(C)=CCc1[nH]c2ccccc2c1C1=C(O)C(=O)C(c2c(CC=C(C)C)[nH]c3ccccc23)=C(O)C1=O`, the GI50 in the assay with A549 is 0.587 µM (active); with ACHN, 1.56 µM (inactive); with EKVX, 2.19 µM (inactive); with HCT-116, 1.5 µM (inactive); in the assay on HCT-15, 1.33 µM; in the assay on HL-60, 2.19 µM (inactive). Further, the GI50 with HT-29 is 2.22 µM (inactive); in the assay with LOX IMVI, 1.43 µM (inactive); with MCF7, 2.26 µM (inactive); with MDA-MB-231 it was 1.28 µM (inactive); with MDA-MB-435, 0.608 µM (active); with Malme-3M it was 0.628 µM (active). Besides, the GI50 in the assay on NCI/ADR-RES was 2.7 µM (inactive); in the assay on OVCAR-3, 1.48 µM (inactive); in the assay with SK-OV-3, 2.11 µM (inactive); with SN12C, 1.26 µM (inactive); in the assay with SR, 1.17 µM (inactive); with SW-620, 3.27 µM (inactive). The GI50 with UACC-257 was 2.12 µM (inactive); with UACC-62, 0.377 µM (active).
Turning to `Cn1c(=O)[nH]c2nccnc2c1=O`, the GI50 with A549 was > 10 µM (inactive); in the assay on ACHN, > 10 µM (inactive); in the assay on EKVX, > 10 µM (inactive); in the assay with HCT-116 it was > 10 µM (inactive); in the assay with HCT-15, more than 10 µM; with HL-60 it was > 10 µM (inactive). For the same compound, the GI50 with HT-29, in the assay with LOX IMVI, with MCF7, in the assay on MDA-MB-231, with MDA-MB-435 and in the assay with Malme-3M was > 10 µM (inactive) throughout. The GI50 in the assay on NCI/ADR-RES, with OVCAR-3, with SK-OV-3, with SN12C, in the assay on SR and in the assay on SW-620 was > 10 µM (inactive) in each case. Also, the GI50 in the assay on UACC-257 and in the assay on UACC-62 was > 10 µM (inactive) each time.
Turning to `COC(=O)N/N=C(\c1ccccc1)c1ccc(OC)cc1`, the GI50 in the assay with A549 was > 100 µM (inactive); with EKVX, > 100 µM (inactive); in the assay with HCT-116 it was > 100 µM (inactive); with HCT-15 it was more than 100 µM; in the assay with HL-60, > 100 µM (inactive); with HT-29, > 100 µM (inactive). The GI50 with LOX IMVI is 35.3 µM (inactive); with MCF7, > 100 µM (inactive); in the assay on MDA-MB-231 it was > 100 µM (inactive); with MDA-MB-435 it was 76.7 µM (inactive); in the assay on Malme-3M, > 100 µM (inactive); in the assay on NCI/ADR-RES it was > 100 µM (inactive). Further, the GI50 with OVCAR-3, in the assay with SK-OV-3, in the assay on SN12C, in the assay with SR, with SW-620 and with UACC-257 was > 100 µM (inactive) in each case. The GI50 in the assay with UACC-62 was > 100 µM (inactive).
On to `Cc1c2ccncc2c(C)c2c1sc1ccccc12`, for which the GI50 in the assay with A549 was 4.33 µM (inactive); in the assay on ACHN, 3.85 µM (inactive); with EKVX, 4.75 µM (inactive); with HCT-116 it was 4.49 µM (inactive); with HCT-15, 7.24 µM; with HL-60, 2.9 µM (inactive). The GI50 in the assay with HT-29 was 6.1 µM (inactive); with LOX IMVI it was 6.18 µM (inactive); in the assay with MCF7 it was 1.84 µM (inactive); with MDA-MB-231 it was 16.5 µM (inactive); in the assay with MDA-MB-435, 15 µM (inactive); with Malme-3M it was 10.8 µM (inactive). Moreover, the GI50 was 7.08 µM (inactive) in the assay on NCI/ADR-RES; 14.6 µM (inactive) in the assay on OVCAR-3; 13.1 µM (inactive) in the assay with SK-OV-3; 9.38 µM (inactive) in the assay on SN12C; 2.19 µM (inactive) with SR; 7.06 µM (inactive) in the assay with SW-620. Besides, the GI50 is 19.3 µM (inactive) with UACC-257 and 5.24 µM (inactive) in the assay on UACC-62.
`O=C(/C=C/c1ccc(OCc2ccccc2)cc1)NCc1ccc(C(=O)NCCc2c[nH]c3ccccc23)cc1`: the GI50 is 17.7 µM (inactive) in the assay on A549; 36.5 µM (inactive) in the assay on ACHN; > 87.1 µM (inactive) in the assay on EKVX; 15.4 µM (inactive) in the assay on HCT-116; more than 94 µM with HCT-15; 6.22 µM (inactive) in the assay with HL-60. In addition, the GI50 was 4.33 µM (inactive) with HT-29; 44.3 µM (inactive) in the assay with LOX IMVI; 17.1 µM (inactive) in the assay with MCF7; 13.8 µM (inactive) in the assay on MDA-MB-231; > 57.3 µM (inactive) with MDA-MB-435; 12.9 µM (inactive) in the assay on Malme-3M. Moreover, the GI50 with NCI/ADR-RES is > 100 µM (inactive); in the assay with OVCAR-3 it was 29 µM (inactive); in the assay on SK-OV-3 it was 15.7 µM (inactive); with SN12C, 23.8 µM (inactive); in the assay with SR it was 20.9 µM (inactive); in the assay on SW-620 it was > 65.2 µM (inactive). The GI50 in the assay on UACC-257 is 33 µM (inactive); in the assay on UACC-62, 15.5 µM (inactive).
With `COc1ccc(OC2OC(CO)C(O)C(O)C2O)cc1` (stereo not drawn), the GI50 with A549 was > 100 µM (inactive); in the assay on ACHN, > 100 µM (inactive); in the assay on EKVX it was > 100 µM (inactive); in the assay on HCT-116, > 100 µM (inactive); in the assay with HCT-15, more than 100 µM; in the assay on HL-60 it was > 100 µM (inactive). Moreover, the GI50 in the assay with HT-29, in the assay on LOX IMVI, in the assay on MCF7, in the assay on MDA-MB-231, with MDA-MB-435 and with Malme-3M was > 100 µM (inactive) in each case. For the same compound, the GI50 in the assay with NCI/ADR-RES, in the assay on OVCAR-3, in the assay on SK-OV-3, in the assay on SN12C, with SR and with SW-620 was > 100 µM (inactive) each time. In addition, the GI50 in the assay with UACC-257 and with UACC-62 was > 100 µM (inactive) throughout.
On to `Nc1ncnc2c1ncn2C1CC(O)C(CO)O1` (stereo not drawn), for which the GI50 in the assay on A549 is > 100 µM (inactive); in the assay on ACHN, > 100 µM (inactive); in the assay with EKVX, > 100 µM (inactive); with HCT-116, > 100 µM (inactive); in the assay on HCT-15 it was more than 100 µM; in the assay on HL-60 it was > 100 µM (inactive). Further, the GI50 in the assay with HT-29, in the assay on LOX IMVI, in the assay with MCF7, in the assay on MDA-MB-231, in the assay on MDA-MB-435 and with Malme-3M was > 100 µM (inactive) throughout. Besides, the GI50 in the assay with NCI/ADR-RES, with OVCAR-3, in the assay on SK-OV-3, in the assay on SN12C, in the assay on SR and with SW-620 was > 100 µM (inactive) in each case. The GI50 with UACC-257 and in the assay with UACC-62 was > 100 µM (inactive) throughout.
On to `COc1cc2c(cc1O)CCN[C@@]21CS[C@H]2c3c(OC(C)=O)c(C)c4c(c3C(COC1=O)N1C2C2c3c(cc(C)c(OC)c3O)CC([C@@H]1O)N2C)OCO4` (stereo partly drawn), for which the GI50 in the assay with A549 is < 0.0001 µM (active); in the assay on ACHN, < 0.0001 µM (active); in the assay on EKVX, < 0.0001 µM (active); in the assay with HCT-116, 0.0001 µM (active); with HCT-15 it was 0.0001 µM; in the assay with HL-60, < 0.0001 µM (active). Moreover, the GI50 in the assay on HT-29 is 0.00128 µM (active); in the assay with LOX IMVI, < 0.0001 µM (active); in the assay with MCF7, < 0.0001 µM (active); in the assay on MDA-MB-231, < 0.0001 µM (active); with MDA-MB-435, < 0.0001 µM (active); in the assay with Malme-3M, < 0.0001 µM (active). Also, the GI50 was 0.0001 µM (active) with NCI/ADR-RES; < 0.0001 µM (active) in the assay with OVCAR-3; 0.0001 µM (active) in the assay with SK-OV-3; < 0.0001 µM (active) in the assay with SN12C; < 1e-06 µM (active) in the assay with SR; < 0.0001 µM (active) in the assay on SW-620. The GI50 in the assay on UACC-257 and in the assay on UACC-62 was < 0.0001 µM (active) in each case.
Regarding `CC1(C)[N+]([O-])=[N+]([O-])C1(C)O` (stereo not drawn), the GI50 in the assay on A549 was > 100 µM (inactive); with EKVX, > 100 µM (inactive); with HCT-116, > 100 µM (inactive); in the assay on HCT-15, more than 100 µM; in the assay with HL-60, > 100 µM (inactive); in the assay on HT-29, > 100 µM (inactive). Also, the GI50 in the assay on LOX IMVI, in the assay with MCF7, in the assay on MDA-MB-231, in the assay on MDA-MB-435, in the assay with Malme-3M and with NCI/ADR-RES was > 100 µM (inactive) throughout. Besides, the GI50 in the assay with OVCAR-3, with SK-OV-3, in the assay with SN12C, in the assay on SR, in the assay on SW-620 and in the assay with UACC-257 was > 100 µM (inactive) throughout. Moreover, the GI50 in the assay on UACC-62 is > 100 µM (inactive).
